From PubChem BioAssay AID248 (DTP/NCI, 2004)
Several values for one entry are separate records, joined by “and”; a condition that tells them apart may be missing. Identical values can stand only once. Inconclusive results and toxic doses are left out. Rule as the data show it: active = T/C of 150% or more; inactive = T/C below 125%.

Test system: L1210 leukemia ip in BDF1 mice, survival T/C
Test: NCI In Vivo Anticancer Drug Screen. Data for tumor model L1210 Leukemia (intraperitoneal) in B6D2F1 (BDF1) mice
Settings: endpoint: mean survival time, higher = longer survival
In short: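 Tumor was transplanted into mice, which were then dosed with test compound or vehicle alone. Survival was recorded for each group, and the treated figure was expressed relative to the control figure.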

[1] = dose: 100.0 mg/kg/injection, schedule: Q04DX003 (ip), vehicle: saline with Tween-80
[2] = dose: 200.0 mg/kg/injection, schedule: Q04DX003 (ip), vehicle: saline with Tween-80
[3] = dose: 400.0 mg/kg/injection, schedule: Q04DX003 (ip), vehicle: saline with Tween-80
[4] = dose: 100.0 mg/kg/injection, schedule: Q01DX001 (ip), vehicle: saline
[5] = dose: 200.0 mg/kg/injection, schedule: Q01DX001 (ip), vehicle: saline
[6] = dose: 400.0 mg/kg/injection, schedule: Q01DX001 (ip), vehicle: saline
[7] = dose: 100.0 mg/kg/injection, schedule: Q01DX009 (ip), vehicle: saline with Tween-80
[8] = dose: 200.0 mg/kg/injection, schedule: Q01DX009 (ip), vehicle: saline with Tween-80
[9] = dose: 100.0 mg/kg/injection, schedule: Q04DX002 (ip), vehicle: Klucel (hydroxypropylcellulose) (HPC)
[10] = dose: 200.0 mg/kg/injection, schedule: Q04DX002 (ip), vehicle: Klucel (hydroxypropylcellulose) (HPC)
[11] = dose: 400.0 mg/kg/injection, schedule: Q04DX002 (ip), vehicle: Klucel (hydroxypropylcellulose) (HPC)
[12] = dose: 100.0 mg/kg/injection, schedule: Q04DX003 (ip), vehicle: Klucel (hydroxypropylcellulose) (HPC)
[13] = dose: 200.0 mg/kg/injection, schedule: Q04DX003 (ip), vehicle: Klucel (hydroxypropylcellulose) (HPC)
[14] = dose: 100.0 mg/kg/injection, schedule: Q01DX009 (ip), vehicle: acetone
[15] = dose: 100.0 mg/kg/injection, schedule: Q04DX003 (ip), vehicle: saline
[16] = dose: 200.0 mg/kg/injection, schedule: Q04DX003 (ip), vehicle: saline
[17] = dose: 400.0 mg/kg/injection, schedule: Q04DX003 (ip), vehicle: saline
[18] = dose: 400.0 mg/kg/injection, schedule: Q01DX009 (ip), vehicle: saline with Tween-80
[19] = dose: 100.0 mg/kg/injection, schedule: Q01DX009 (ip), vehicle: Klucel (hydroxypropylcellulose) (HPC)
[20] = dose: 200.0 mg/kg/injection, schedule: Q01DX009 (ip), vehicle: Klucel (hydroxypropylcellulose) (HPC)

Measured: T/C

O=C(O)CCCN1C(=O)C2C3CCC(C3)C2C1=O (stereo not given)
inactive: [1] 103 % of control | [2] 98 % of control | [3] 107 % of control

CC(C)(CO)N=Cc1ccccc1Cl
inactive: [4] 102 % of control | [5] 100 % of control | [6] 100 % of control

CN1C(=O)C2C(N=CN2C)N(C)C1=O (stereo not given)
inactive: [7] 96 % of control | [8] 90 % of control

COc1ccc(/C=N/NC(=O)c2ccc(N)cc2)cc1
inactive: [9] 106 % of control | [10] 100 % of control | [11] 95 % of control

O=C(Nc1ccc(Br)cc1C(=O)O)c1cccc(Br)c1
inactive: dose: 100.0 mg/kg/injection, schedule: Q01DX001 (ip), vehicle: other 103 % of control

Cc1cc(=O)[nH]c2ccc(Cc3ccc4[nH]c(=O)cc(C)c4c3)cc12
inactive: [4] 102 % of control | [5] 102 % of control | [6] 107 % of control

O=C(Nc1ccccc1Cl)Nc1cccc2ccccc12
inactive: [9] 105 % of control | [10] 102 % of control | [11] 98 % of control

O=C(COc1cccc(Cl)c1Cl)Nc1ccc[n+](Cc2ccc(S(=O)(=O)F)cc2)c1
inactive: [12] 104 % of control | [13] 100 % of control

O=COCC1CCC(COC=O)CC1 (stereo not given)
inactive: dose: 222.0 mg/kg/injection, schedule: Q01DX Z (ip), vehicle: methylcellulose (MC) 94 % of control | dose: 333.0 mg/kg/injection, schedule: Q01DX Z (ip), vehicle: methylcellulose (MC) 94 % of control | dose: 500.0 mg/kg/injection, schedule: Q01DX Z (ip), vehicle: methylcellulose (MC) 105 % of control

Nc1c(Cl)ncnc1Nc1ccccc1C(=O)O
inactive: dose: 50.0 mg/kg/injection, schedule: Q01DX001 (ip), vehicle: saline 102 % of control | [4] 93 % of control | [5] 98 % of control | [6] 98 % of control

COC(=O)C#CCCC#CC(C)=O
inactive: dose: 18.0 mg/kg/injection, schedule: Q04DX002 (ip), vehicle: gum acacia 96 % of control | dose: 37.0 mg/kg/injection, schedule: Q04DX002 (ip), vehicle: gum acacia 107 % of control | dose: 75.0 mg/kg/injection, schedule: Q04DX002 (ip), vehicle: gum acacia 102 % of control and 104 % of control

O=C(N/N=C/C=C/c1ccccc1)[C@H](O)[C@@H](O)C(=O)N/N=C/C=C/c1ccccc1
inactive: [4] 92 % of control | [14] 90 % of control | [15] 88 % of control | [5] 93 % of control | [16] 88 % of control | [6] 93 % of control | dose: 400.0 mg/kg/injection, schedule: Q01DX009 (ip), vehicle: acetone 92 % of control | [17] 97 % of control

CC(C(=O)c1ccccc1)C(Cl)c1ccccc1 (stereo not given)
inactive: [7] 102 % of control | [1] 104 % of control | [8] 106 % of control | [2] 107 % of control | [18] 102 % of control | [3] 104 % of control

C1CC(=NN=C2CCSCC2)CCS1
inactive: [15] 96 % of control | [16] 94 % of control | [17] 123 % of control

Nc1nc(N)c(-c2ccc(Cl)cc2)c(COc2cccc(NC(=O)c3ccc(NC(=O)CBr)cc3)c2)n1
inactive: [4] 91 % of control | [5] 91 % of control | [6] 104 % of control

CC(C)=NNC(=O)C1CC=CC1C(Cl)Cl (stereo not given)
inactive: [19] 96 % of control | [20] 98 % of control | dose: 400.0 mg/kg/injection, schedule: Q01DX009 (ip), vehicle: Klucel (hydroxypropylcellulose) (HPC) 93 % of control

CC(=O)OC1CCC2(C)C(=CCC3C2CCC2(C)C(c4cccc(=O)o4)CCC32)C1 (stereo not given)
inactive: dose: 100.0 mg/kg/injection, schedule: Q01DX001 (sc), vehicle: steriod suspending solution 100 % of control | dose: 200.0 mg/kg/injection, schedule: Q01DX001 (sc), vehicle: steriod suspending solution 102 % of control | dose: 400.0 mg/kg/injection, schedule: Q01DX001 (sc), vehicle: steriod suspending solution 93 % of control

CN(C)CCC(O)Cc1ccccc1 (stereo not given)
inactive: [14] 95 % of control | dose: 200.0 mg/kg/injection, schedule: Q01DX009 (ip), vehicle: acetone 101 % of control

O=C(/C=C/C(=O)c1ccccc1)c1ccccc1
inactive: dose: 75.0 mg/kg/injection, schedule: Q04DX003 (ip), vehicle: Klucel (hydroxypropylcellulose) (HPC) 98 % of control | [9] 98 % of control | dose: 150.0 mg/kg/injection, schedule: Q04DX003 (ip), vehicle: Klucel (hydroxypropylcellulose) (HPC) 97 % of control | [10] 106 % of control | dose: 300.0 mg/kg/injection, schedule: Q04DX003 (ip), vehicle: Klucel (hydroxypropylcellulose) (HPC) 104 % of control

COC(=O)COc1cc(Cl)c(Cl)cc1Cl
inactive: dose: 100.0 mg/kg/injection, schedule: Q04DX002 (ip), vehicle: saline with Tween-80 95 % of control | dose: 200.0 mg/kg/injection, schedule: Q04DX002 (ip), vehicle: saline with Tween-80 95 % of control

CSCSCC(NS(=O)(=O)c1ccc(C)cc1)C(=O)O (stereo not given)
inactive: [7] 109 % of control | [1] 107 % of control | [8] 109 % of control | [2] 96 % of control | [18] 104 % of control | [3] 105 % of control

O=C(O)c1cc(N=Nc2ncn[nH]2)ccc1O
inactive: dose: 87.5 mg/kg/injection, schedule: Q04DX003 (ip), vehicle: Klucel (hydroxypropylcellulose) (HPC) 96 % of control | dose: 175.0 mg/kg/injection, schedule: Q04DX003 (ip), vehicle: Klucel (hydroxypropylcellulose) (HPC) 97 % of control | dose: 350.0 mg/kg/injection, schedule: Q04DX003 (ip), vehicle: Klucel (hydroxypropylcellulose) (HPC) 100 % of control

c1ccc(-c2csc(-c3nc(-c4ccccc4)cs3)n2)cc1
inactive: [12] 90 % of control | [13] 95 % of control | dose: 400.0 mg/kg/injection, schedule: Q04DX003 (ip), vehicle: Klucel (hydroxypropylcellulose) (HPC) 102 % of control

Nc1cccc(CNC(=O)COc2ccc(Cl)cc2C(=O)O)c1
inactive: dose: 100.0 mg/kg/injection, schedule: Q01DX001 (ip), vehicle: saline with Tween-80 98 % of control | dose: 200.0 mg/kg/injection, schedule: Q01DX001 (ip), vehicle: saline with Tween-80 95 % of control | dose: 400.0 mg/kg/injection, schedule: Q01DX001 (ip), vehicle: saline with Tween-80 103 % of control

C#CC(C)(C)CC(=O)O
inactive: [1] 98 % of control | [2] 95 % of control | [3] 92 % of control

CC(C)CCCC(C)C1CCC2C3CCC4=C/C(=N/NC(N)=O)CCC4(C)C3CCC12C (stereo not given)
inactive: dose: 50.0 mg/kg/injection, schedule: Q01DX009 (ip), vehicle: Klucel (hydroxypropylcellulose) (HPC) 97 % of control | [19] 90 % of control | [20] 88 % of control

Cc1ccc2nc3c4ccccc4scc-3c2c1
inactive: dose: 100.0 mg/kg/injection, schedule: Q04DX003 (ip), vehicle: acetone 93 % of control

Cc1cc(C)c(N)c(C)n1
inactive: dose: 12.5 mg/kg/injection, schedule: Q04DX003 (ip), vehicle: Klucel (hydroxypropylcellulose) (HPC) 95 % of control | dose: 25.0 mg/kg/injection, schedule: Q04DX003 (ip), vehicle: Klucel (hydroxypropylcellulose) (HPC) 97 % of control | dose: 50.0 mg/kg/injection, schedule: Q04DX003 (ip), vehicle: Klucel (hydroxypropylcellulose) (HPC) 93 % of control
